Target: T1, TRPC4 (Mus musculus, UniProt Q9QUQ5)
T1 construct: native channel in murine sigmoid colonic myocytes
T1 sequence (Q9QUQ5 1-974): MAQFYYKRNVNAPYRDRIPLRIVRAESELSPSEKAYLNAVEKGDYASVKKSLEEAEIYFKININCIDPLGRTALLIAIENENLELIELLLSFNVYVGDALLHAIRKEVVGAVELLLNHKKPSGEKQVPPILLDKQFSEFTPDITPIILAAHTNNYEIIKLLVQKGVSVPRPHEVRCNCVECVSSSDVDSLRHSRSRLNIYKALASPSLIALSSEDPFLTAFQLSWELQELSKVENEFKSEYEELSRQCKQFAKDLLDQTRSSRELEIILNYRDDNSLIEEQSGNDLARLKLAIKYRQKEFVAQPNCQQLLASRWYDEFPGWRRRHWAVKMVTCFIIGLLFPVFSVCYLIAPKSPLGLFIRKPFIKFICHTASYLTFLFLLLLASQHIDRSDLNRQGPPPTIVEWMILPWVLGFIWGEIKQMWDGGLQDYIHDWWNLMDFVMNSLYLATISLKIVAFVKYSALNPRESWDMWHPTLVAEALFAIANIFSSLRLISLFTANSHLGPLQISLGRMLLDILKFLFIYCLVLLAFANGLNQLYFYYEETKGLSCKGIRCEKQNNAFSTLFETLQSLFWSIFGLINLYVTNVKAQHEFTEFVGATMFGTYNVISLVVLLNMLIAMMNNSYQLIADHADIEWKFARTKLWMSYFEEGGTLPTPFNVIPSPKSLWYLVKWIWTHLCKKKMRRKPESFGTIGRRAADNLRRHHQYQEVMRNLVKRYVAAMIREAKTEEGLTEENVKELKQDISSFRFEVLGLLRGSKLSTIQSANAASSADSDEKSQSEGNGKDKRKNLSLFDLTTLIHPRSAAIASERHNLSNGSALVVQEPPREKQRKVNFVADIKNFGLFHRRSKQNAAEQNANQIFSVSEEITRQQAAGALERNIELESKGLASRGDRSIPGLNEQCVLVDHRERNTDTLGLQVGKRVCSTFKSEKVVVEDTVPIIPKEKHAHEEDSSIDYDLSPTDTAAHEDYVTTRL
Assay: whole-cell patch clamp of CCh-evoked mIcat in murine colonic myocytes, […] Pico145; current absent in TRPC4-deficient mice
Type: cell-based

SMILES: Cn1c(=O)n(CCCO)c(=O)c2c1nc(Oc1cccc(OC(F)(F)F)c1)n2Cc1ccc(Cl)cc1 [Pico145]
- whole-cell patch clamp of CCh-evoked mIcat in murine colonic myocytes, 100 nM Pi: The selective and potent antagonist of TRPC4, Pico145, completely blocked the CCh‐evoked current.

— PMC9549500, “Inhibition of TRPC4 channel activity in colonic myocytes by tricyclic antidepressants disrupts colonic motility causing constipation” (Journal of Cellular and Molecular Medicine, 2022)
